# Measurements as given in patent publication US9085507B2, “Desfesoterodine in the form of a tartaric acid salt” (ratiopharm GmbH, priority 2009, dated 2015).
# Counter-ions that a name gives are not always drawn.
# Columns and labels:
# [1] = In vitro solubility behaviour; format: physicochemical; conditions: for In vitro solubility profile: compared with fesoterodine fumarate
# Protocol: The in vitro solubility behaviour of fesoterodine fumarate (crystalline, commercially available), desfesoterodine fumarate in accordance with Comparative Example 1 and desfesoterodine tartrate in accordance with Example 1 of the invention was investigated:
# Solubility behaviour scale: • poor: <20 mg/ml • average: 20 to 60 mg/ml • good: >60 to 80 mg/ml • very good: >80 mg/ml
# [2] = Stability on storage, stress test; format: physicochemical
# Protocol: Further, the stability on storage of desfesoterodine tartrate was determined in a stress test.
# [3] = test system: overactive bladder syndrome; conditions: both phase III studies, over placebo; cited from earlier work
In vitro solubility behaviour ([1]; pH 4.5),In vitro solubility behaviour ([1]; pH 10),"Stability on storage ([2]; aqueous solution, pH of 4.5)","Stability on storage ([2]; aqueous solution, pH of 10)",Stability on storage ([2]; solid form),Structure (SMILES),In vitro solubility profile ([1]; listed as desfesoterodine salt of the invention),In vitro solubility profile [1],"Clinically relevant outcomes (urge incontinence results/24 h, micturition frequency, median micturition volume) [3]"
Good,Good,,,,"CC(C)C(=O)Oc1ccc(CO)cc1[C@H](CCN(C(C)C)C(C)C)c1ccccc1 [Fesoterodine fumarate, 2-[(1R)-3-(diisopropylamino)-1-phenylpropyl]-4-(hydroxymethyl)phenyl-isobutyrate]",,,
Good,Good,advantageous stability on storage,advantageous stability on storage,advantageous stability on storage,"CC(C)N(CC[C@H](c1ccccc1)c1cc(CO)ccc1O)C(C)C [Desfesoterodine tartrate, (R)-2-(3-diisopropylamino-1-phenylpropyl)-4-hydroxymethylphenol]",almost identical in vitro solubility profile to that of fesoterodine fumarate,,
Poor,Poor,,,,"CC(C)N(CC[C@H](c1ccccc1)c1cc(CO)ccc1O)C(C)C [Desfesoterodine fumarate, (R)-2-(3-diisopropylamino-1-phenylpropyl)-4-hydroxymethylphenol]",,substantially poorer in vitro solubility profile,
,,,,,"CC(C)C(=O)Oc1ccc(CO)cc1[C@H](CCN(C(C)C)C(C)C)c1ccccc1 [Fesoterodine, 2-[(1R)-3-(diisopropylamino)-1-phenylpropyl]-4-(hydroxymethyl)phenyl-isobutyrate]",,,statistically significant improvements
